Laboratory results from ChEMBL document CHEMBL1138605, “Identification of 3-substituted N-benzhydryl-nortropane analogs as nociceptin receptor ligands for the management of cough and anxiety” (Bioorg Med Chem Lett, 2009).
Activity calls are given as the source filed them. No cut-off for these calls is given here.

Columns and labels:
Homo sapiens = species: Homo sapiens; assay: Selectivity for human cloned ORL1 receptor over human mu opioid receptor
Nociceptin receptor [1] = molecular target: T1, Nociceptin receptor (Homo sapiens, UniProt P41146); assay: Displacement of [125I][Tyr14]nociceptin from human cloned ORL1 receptor expressed in CHO cells; format: cell-based
Mu-type opioid receptor [2] = molecular target: T2, Mu-type opioid receptor (Homo sapiens, UniProt P35372); assay: Displacement of [3H]diprenorphine from human mu opioid receptor expressed in CHO cells; format: cell-based
[3] = molecular target: T3, Nuclear receptor subfamily 1 group I member 2 (Homo sapiens, UniProt O75469); assay: Activity at PXR in human hepatocytes assessed as induction of CYP3A4 activity at 1 uM relative rifampicin; format: cell-based, Hepatocyte
T3 sequence (O75469 whole entry): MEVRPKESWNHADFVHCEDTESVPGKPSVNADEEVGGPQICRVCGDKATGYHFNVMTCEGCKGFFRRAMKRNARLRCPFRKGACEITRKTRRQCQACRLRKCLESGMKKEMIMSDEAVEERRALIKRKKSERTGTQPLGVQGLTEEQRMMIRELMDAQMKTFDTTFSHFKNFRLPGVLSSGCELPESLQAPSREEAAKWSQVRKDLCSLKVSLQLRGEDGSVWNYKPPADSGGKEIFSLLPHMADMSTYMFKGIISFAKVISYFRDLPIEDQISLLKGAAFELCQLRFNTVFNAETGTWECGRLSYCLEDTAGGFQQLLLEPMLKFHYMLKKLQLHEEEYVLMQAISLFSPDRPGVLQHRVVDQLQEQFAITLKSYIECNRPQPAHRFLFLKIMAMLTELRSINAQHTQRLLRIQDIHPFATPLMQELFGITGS

Mu-type opioid receptor [4] = molecular target: T2, Mu-type opioid receptor; assay: Agonist activity at human mu opioid receptor assessed as stimulation of GTPgammaS binding at 10 uM; format: functional
Nociceptin receptor [5] = molecular target: T1, Nociceptin receptor; assay: Agonist activity at human cloned ORL1 receptor assessed as stimulation of GTPgammaS binding; format: functional
Mu-type opioid receptor [6] = molecular target: T2, Mu-type opioid receptor; assay: Agonist activity at human mu opioid assessed as stimulation of GTPgammaS binding; format: functional
Nociceptin receptor [7] = molecular target: T1, Nociceptin receptor; assay: Agonist activity at human cloned ORL1 receptor assessed as stimulation of GTPgammaS binding at 10 uM; format: functional
Cavia porcellus [8] = assay: Antitussive activity in po dosed guinea pig GPPV model assessed as reduction of capsaicin-induced coughing after 2 hrs administered 15 mins before capsaicin challenge; format: functional
Cavia porcellus [9] = assay: Anxiolytic like activity in guinea pig assessed as reduction in number of vocalization produced due to separation measured at 3 mg/kg, po after 2 hrs; format: functional, organism-based; parameters: dose 3 mg/kg
Cavia porcellus [10] = assay: Antitussive activity in guinea pig GPPV model assessed as reduction of capsaicin-induced coughing at 0.3 mg/kg, po after 2 hrs administered 15 mins before capsaicin challenge; format: functional; parameters: scale not given: the % may be the effect or the level left
Rattus norvegicus = species: Rattus norvegicus; assay: Anxiolytic like activity in rat assessed as conditioned lick suppression after 2 hrs; format: functional

T2 sequence (P35372 whole entry): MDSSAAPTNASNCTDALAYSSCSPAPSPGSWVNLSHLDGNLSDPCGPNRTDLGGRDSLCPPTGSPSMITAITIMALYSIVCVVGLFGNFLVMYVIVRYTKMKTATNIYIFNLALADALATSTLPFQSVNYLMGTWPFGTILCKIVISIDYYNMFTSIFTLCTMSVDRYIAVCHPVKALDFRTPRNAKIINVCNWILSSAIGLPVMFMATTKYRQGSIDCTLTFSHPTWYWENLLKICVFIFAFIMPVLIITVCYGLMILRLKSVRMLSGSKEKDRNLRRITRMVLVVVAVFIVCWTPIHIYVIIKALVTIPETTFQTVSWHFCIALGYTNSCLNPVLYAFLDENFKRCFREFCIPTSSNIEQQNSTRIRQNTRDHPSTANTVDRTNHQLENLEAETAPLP
T1 sequence (P41146 whole entry): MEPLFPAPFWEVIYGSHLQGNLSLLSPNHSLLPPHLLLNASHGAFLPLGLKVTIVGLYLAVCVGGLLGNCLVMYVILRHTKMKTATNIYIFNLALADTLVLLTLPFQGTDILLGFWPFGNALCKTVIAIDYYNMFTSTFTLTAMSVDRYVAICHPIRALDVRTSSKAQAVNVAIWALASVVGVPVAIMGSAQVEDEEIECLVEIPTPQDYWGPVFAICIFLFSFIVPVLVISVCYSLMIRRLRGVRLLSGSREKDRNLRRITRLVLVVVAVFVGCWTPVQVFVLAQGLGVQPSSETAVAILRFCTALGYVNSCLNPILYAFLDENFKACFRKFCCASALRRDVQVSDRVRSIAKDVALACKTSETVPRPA

Row | SMILES | fold change (FC) (Homo sapiens) | Ki (Nociceptin receptor [1]) | Ki (Mu-type opioid receptor [2]) | Ratio [3] | also measured
1 | COC(=O)c1ccc([C@@]2(C(N)=O)C[C@H]3CC[C@@H](C2)N3C(c2ccccc2Cl)c2ccccc2Cl)nc1 | 4 | > 1000 nM |  |  | 
2 | NC(=O)[C@]1(c2ccncc2)C[C@H]2CC[C@@H](C1)N2C(c1ccccc1Cl)c1ccccc1Cl | 20 | 79 nM | 265 nM |  | 
3 | NC(=O)[C@]1(c2ncc(F)cc2F)C[C@H]2CC[C@@H](C1)N2C(c1ccccc1Cl)c1ccccc1Cl |  | 47 nM |  |  | 
4 | NC(=O)[C@@]1(Cc2ccc(F)cc2)C[C@H]2CC[C@@H](C1)N2C(c1ccccc1Cl)c1ccccc1Cl |  | 3 nM | 85 nM | 0.48 | Activity (Mu-type opioid receptor [4]): 107%; EC50 (Nociceptin receptor [5]): 11 nM; EC50 (Mu-type opioid receptor [6]): 540 nM; Activity (Nociceptin receptor [7]): 108%
5 | NC(=O)[C@]1(c2ccc(Br)nc2)C[C@H]2CC[C@@H](C1)N2C(c1ccccc1Cl)c1ccccc1Cl |  | 13 nM | 46 nM |  | 
6 | CC(=O)NC[C@]1(c2ccccc2)C[C@H]2CC[C@@H](C1)N2C(c1ccccc1Cl)c1ccccc1Cl |  | 20 nM |  | 0.94 | EC50 (Nociceptin receptor [5]): 269 nM; ED50 (Cavia porcellus [8]): 0.19 mg/kg
7 | N[C@]1(Cc2ccc(Cl)cc2)C[C@H]2CC[C@@H](C1)N2C(c1ccccc1Cl)c1ccccc1Cl |  | 36 nM | 447 nM |  | 
8 | NC(=O)C[C@]1(Cc2ccc(F)cc2)C[C@H]2CC[C@@H](C1)N2C(c1ccccc1Cl)c1ccccc1Cl | 63 | 3 nM | 190 nM | 0.35 | Activity (Cavia porcellus [9]): inactive; Activity (Cavia porcellus [10]): 38%
9 | NC(=O)[C@]1(c2ccccn2)C[C@H]2CC[C@@H](C1)N2C(c1ccccc1Cl)c1ccccc1Cl |  | 4 nM | 52 nM | 0.79 | 
10 | N#Cc1ccc([C@@]2(C(N)=O)C[C@H]3CC[C@@H](C2)N3C(c2ccccc2Cl)c2ccccc2Cl)nc1 | 4 | 75 nM | 481 nM |  | 
11 | NC(=O)[C@]1(c2ccc(O)cn2)C[C@H]2CC[C@@H](C1)N2C(c1ccccc1Cl)c1ccccc1Cl | 4 | 72 nM |  |  | 
12 | NC(=O)[C@]1(c2ccc(C(F)(F)F)cn2)C[C@H]2CC[C@@H](C1)N2C(c1ccccc1Cl)c1ccccc1Cl | 4 | 122 nM |  |  | 
13 | N[C@]1(c2ccc(F)cn2)C[C@H]2CC[C@@H](C1)N2C(c1ccccc1Cl)c1ccccc1Cl | 32 | 7 nM | 209 nM | 0.23 | Activity (Cavia porcellus [10]): inactive
14 | COC(=O)N[C@]1(c2ccccn2)C[C@H]2CC[C@@H](C1)N2C(c1ccccc1Cl)c1ccccc1Cl | 74 | 10 nM | 741 nM | 0.98 | Activity (Mu-type opioid receptor [4]): 52%; EC50 (Nociceptin receptor [5]): 87 nM; EC50 (Mu-type opioid receptor [6]): 3780 nM; Activity (Nociceptin receptor [7]): 92%
15 | NC(=O)[C@]1(c2nc(F)ccc2F)C[C@H]2CC[C@@H](C1)N2C(c1ccccc1Cl)c1ccccc1Cl |  | 16 nM |  | 0.83 | 
16 | N[C@]1(c2ccccn2)C[C@H]2CC[C@@H](C1)N2C(c1ccccc1Cl)c1ccccc1Cl | 32 | 10 nM | 343 nM | 0.47 | Activity (Cavia porcellus [10]): inactive
17 | NC(=O)[C@]1(c2cc(F)c(F)cn2)C[C@H]2CC[C@@H](C1)N2C(c1ccccc1Cl)c1ccccc1Cl |  | 9 nM | 74 nM | 0.18 | 
18 | NC(=O)[C@]1(c2cc(F)cc(F)n2)C[C@H]2CC[C@@H](C1)N2C(c1ccccc1Cl)c1ccccc1Cl |  | 15 nM | 468 nM | 0.55 | 
19 | NC(=O)[C@]1(c2ccc(Cl)cn2)C[C@H]2CC[C@@H](C1)N2C(c1ccccc1Cl)c1ccccc1Cl |  | 15 nM | 143 nM | 0.27 | ED50 (Rattus norvegicus): 2.4 mg/kg; Activity (Mu-type opioid receptor [4]): 97%; EC50 (Nociceptin receptor [5]): 44 nM; EC50 (Mu-type opioid receptor [6]): 368 nM; Activity (Nociceptin receptor [7]): 145%
20 | NC(=O)C[C@]1(Cc2ccc(O)cc2)C[C@H]2CC[C@@H](C1)N2C(c1ccccc1Cl)c1ccccc1Cl |  | 17 nM |  | 0.51 | 
